Measurements reported in the supplement of paper PMC11061612.

How the values were obtained:
Assay in all cases: combination Emax (second highest fraction inhibited in the dose matrix, 72 h); higher = more inhibition; extreme values may be limits of the assay
[1] = tested on: 786-0 (Kidney Carcinoma)
Method in brief: (§1)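 Cell lines in DMEM/F12 or RPMI with 10% FBS were plated in 1536-well plates, held 24 hours at 37°C, 5% CO2, then given two-drug dose matrices for 72 hours (DMSO typically 0.2%). Viability was read by CellTiter-Glo 2.0 luminescence and scaled as inhibition from 0 (vehicle wells) to 1 (blank wells). Combination Emax is the second-highest inhibition in the matrix; Bliss excess is observed combination effect minus expected EA + EB − EA·EB, EA and EB being single-agent effects.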

[2] = tested on: AsPC-1 (Pancreatic Carcinoma)
Method in brief: as §1

[3] = tested on: Calu-6 (Non-Small Cell Lung Carcinoma)
Method in brief: as §1

[4] = tested on: Caov-3 (Ovarian Carcinoma)
Method in brief: as §1

[5] = tested on: ES-2 (Ovarian Carcinoma)
Method in brief: as §1

[6] = tested on: FLO-1 (Esophageal Adenocarcinoma)
Method in brief: as §1

[7] = tested on: HSC-3 (Oral Cavity Carcinoma)
Method in brief: as §1

[8] = tested on: HTC-C3 (Thyroid Gland Carcinoma)
Method in brief: as §1

[9] = tested on: JHH-1 (Hepatocellular Carcinoma)
Method in brief: as §1

[10] = tested on: LAMA-84 (Chronic Myelogenous Leukemia)
Method in brief: as §1

[11] = tested on: LOUCY (T-Lymphoblastic Leukemia)
Method in brief: as §1

[12] = tested on: NCI-H1755 (Lung Adenocarcinoma)
Method in brief: as §1

[13] = tested on: NCI-H810 (Non-Small Cell Lung Carcinoma)
Method in brief: as §1

[14] = tested on: OCI-AML5 (Acute Myeloid Leukemia)
Method in brief: as §1

[15] = tested on: OV-90 (Ovarian Carcinoma)
Method in brief: as §1

[16] = tested on: RPMI-8866 (Chronic Myelogenous Leukemia)
Method in brief: as §1

[17] = tested on: RT4 (Bladder Carcinoma)
Method in brief: as §1

[18] = tested on: SJRH30 (Rhabdomyosarcoma)
Method in brief: as §1

[19] = tested on: SK-MM-2 (Plasma Cell Myeloma)
Method in brief: as §1

[20] = tested on: SW684 (Other Solid Carcinomas)
Method in brief: as §1

Structure (SMILES)	combination Emax [1]	combination Emax [2]	combination Emax [3]	combination Emax [4]	combination Emax [5]	combination Emax [6]	combination Emax [7]	combination Emax [8]	combination Emax [9]	combination Emax [10]	combination Emax [11]	combination Emax [12]	combination Emax [13]	combination Emax [14]	combination Emax [15]	combination Emax [16]	combination Emax [17]	combination Emax [18]	combination Emax [19]	combination Emax [20]
CN(CCO)CC[C@H](CSc1ccccc1)Nc1ccc(S(=O)(=O)NC(=O)c2ccc(N3CCC([C@@H](O)c4ccccc4-c4ccc(Cl)cc4)CC3)cc2)cc1S(=O)(=O)C(F)(F)F [AZD4320] + C1CN(CCC1(C(=O)N[C@@H](CCO)C2=CC=C(C=C2)Cl)N)C3=NC=NC4=C3C=CN4 [Capivasertib] (first compound max 1 µM, 7x7, partner max 3 µM)	0.402	0.643	0.448	0.363	0.131	0.343	0.53	0.207	0.355	0.696	1	0.303	0.482	1	0.717	0.641	0.144	0.427	1	0.449
COc1cccc(OCCCN)c1-c1cc(Nc2cnc(C#N)cn2)n[nH]1 [Prexasertib] + Cc1cc2ncnn2cc1Nc1ncc2c(n1)n(C1CCOCC1)c(=O)n2C [AZD7648] (first compound max 1 µM, 7x7, partner max 10 µM)	0.896	0.425	0.796	0.797	0.848	0.703	0.731	0.843	0.559	0.99	1	0.918	0.896	0.988	0.548	1	0.404	0.935	0.67	0.498
CCc1c2c(nc3ccc(O)cc13)-c1cc3c(c(=O)n1C2)COC(=O)[C@]3(O)CC [SN-38] + O=C(c1cc(Cc2n[nH]c(=O)c3ccccc23)ccc1F)N1CCN(C(=O)C2CC2)CC1 [Olaparib] (first compound max 0.3 µM, 7x7, partner max 10 µM)	0.931	0.156	0.776	0.984	–	0.479	0.847	0.686	0.539	0.948	0.764	0.616	0.557	–	0.553	0.994	0.832	0.444	0.89	0.556
Cn1cnc2c(F)c(Nc3ccc(Br)cc3Cl)c(C(=O)NOCCO)cc21 [Selumetinib] + CCN(CCO)CCCOc1ccc2c(Nc3cc(CC(=O)Nc4cccc(F)c4)[nH]n3)ncnc2c1 [AZD2811] (first compound max 10 µM, 7x7, partner max 1 µM)	0.208	0.443	0.733	–	0.488	0.475	0.512	0.654	0.375	0.958	0.909	0.541	0.444	1	0.606	0.34	0.516	0.253	0.161	0.277
NC1(C(=O)N[C@@H](CCO)c2ccc(Cl)cc2)CCN(c2ncnc3[nH]ccc23)CC1 [Capivasertib] + C[C@@H]1COCCN1C2=NC(=NC(=C2)C3(CC3)[S@](=N)(=O)C)C4=C5C=CNC5=NC=C4 [AZD6738] (first compound max 10 µM, 7x7, partner max 10 µM)	0.809	0.329	0.792	–	0.86	0.652	0.764	0.823	0.409	0.941	0.979	0.83	0.648	0.917	0.614	0.911	0.577	0.89	0.302	0.587
Cc1nc(Nc2ncc(C(=O)Nc3c(C)cccc3Cl)s2)cc(N2CCN(CCO)CC2)n1 [Dasatinib] + CC(=O)Nc1cccc(-n2c(=O)n(C3CC3)c(=O)c3c(Nc4ccc(I)cc4F)n(C)c(=O)c(C)c32)c1 [Trametinib] (first compound max 2 µM, 7x7, partner max 1 µM)	0.642	0.612	0.969	–	0.86	0.966	0.867	0.906	0.806	1	0.344	0.961	0.103	0.81	0.752	0.556	0.822	0.157	0.123	0.609
